Measured values taken from patent US20070082920A1, “NAD+-dependent DNA ligase inhibitors” (priority 2005, published 2007).

Columns and labels:
[1] = system: Moraxella catterhalis ATCC 25238; assay: MIC, broth microdilution (CLSI), M. catarrhalis; format: cell-based
Description: (§1) The compounds of Formulas 1-VIII were evaluated as inhibitors of NAD+-dependent DNA ligase inhibitors. Their antimicrobial activity was evaluated against bacteria using the broth microdilution method as described by Clinical Laboratory Standards Institute (formerly NCCLS). Activity was assessed against the following bacterial strains: Staphylococcus aureus ATCC 29213, Streptococcus pneumoniae ATCC 49619, Escherichia coli ATCC 25922, E. coli CGSC 5633 (ToIC mutant), Haemophilus influenzae ATCC 49766, Streptococcus pyogenes ATCC 19615, Moraxella catterhalis ATCC 25238, Enterococcus faecalis ATCC 29212. The lowest concentration of compound which inhibited visual growth of each bacterium, the minimum inhibitory concentration (MIC), was determined.

[2] = system: Escherichia coli ATCC 25922; assay: MIC, broth microdilution (CLSI), E. coli ATCC 25922; format: cell-based; parameters: unit not given here
Description: as §1

[3] = system: E. coli CGSC 5633 (ToIC mutant); assay: MIC, broth microdilution (CLSI), E. coli CGSC 5633; format: cell-based, Escherichia coli; parameters: unit not given beside the values
Description: as §1

[4] = system: Enterococcus faecalis ATCC 29212; assay: MIC, broth microdilution (CLSI), E. faecalis; format: cell-based; parameters: unit not given here
Description: as §1

[5] = system: Streptococcus pyogenes ATCC 19615; assay: MIC, broth microdilution (CLSI), S. pyogenes; format: cell-based
Description: as §1

[6] = system: Staphylococcus aureus ATCC 29213; assay: MIC, broth microdilution (CLSI), S. aureus; format: cell-based; settings: lowest concentration inhibiting visual growth
Description: as §1

[7] = system: Streptococcus pneumoniae ATCC 49619; assay: MIC, broth microdilution (CLSI), S. pneumoniae; format: cell-based
Description: as §1

[8] = system: Haemophilus influenzae ATCC 49766; assay: MIC, broth microdilution (CLSI), H. influenzae; format: cell-based; parameters: unit not given beside the values
Description: as §1

[9] = Acute toxicity, Alamar blue cell viability, NIH 3T3; format: cell-based; settings: mouse
Description: (§2) Acute toxicity was assessed against two mammalian cell lines, HepG2 (human hepatocyte) and NIH 3T3 (mouse fibroblast). Cell viability was measured by an in vitro assay using Alamar blue. The concentration of compound which inhibited 50% of the cell growth (LC50) was determined.

[10] = Acute toxicity, Alamar blue cell viability, HepG2; format: cell-based; settings: human
Description: as §2

[11] = NIH 3T3 cells, Alamar blue, 50% inhibition of cell growth, read-out: Acute Tox LC50 μM/ NIH-3T3
[12] = HepG2 cells, Alamar blue, 50% inhibition of cell growth, read-out: Acute Tox LC50 μM/ HepG2

With Cc1cc(NCc2ccc(C(F)(F)F)cc2F)nc2nc(N)nc(N)c12 [III-h] the “MIC M. catarrhalis” value [1] was 4, the “MIC E. coli ATCC 25922” value [2] was 16 and the “MIC E. coli CGSC 5633” value [3] was 0.5. The “MIC E. faecalis” value [4] was 4, the “MIC S. pyogenes” value [5] was 4 and the “MIC S. aureus ATCC 29213” value [6] was 16. For the same compound, the “MIC S. pneumoniae” value [7] was 4 and the “MIC H. influenzae” value [8] was 16.
For Cc1cc(NCc2ccc(F)cc2C(F)(F)F)nc2nc(N)nc(N)c12 [III-j], the “MIC M. catarrhalis” value [1] was 4, the “MIC E. coli ATCC 25922” value [2] was 32 and the “MIC E. coli CGSC 5633” value [3] was 0.25. The “MIC E. faecalis” value [4] was 1, the “MIC S. pyogenes” value [5] was 4 and the “MIC S. aureus ATCC 29213” value [6] was 16. The “MIC S. pneumoniae” value [7] was 1 and the “MIC H. influenzae” value [8] was 16.
In the case of Cc1cc(NCc2cc(C(F)(F)F)ccc2F)nc2nc(N)nc(N)c12 [III-k], the “MIC M. catarrhalis” value [1] is reported as 16, the “MIC E. coli ATCC 25922” value [2] is reported as 32 and the “MIC E. faecalis” value [4] is reported as 0.5. The “MIC S. pyogenes” value [5] was 16, the “MIC S. aureus ATCC 29213” value [6] was 16 and the “MIC S. pneumoniae” value [7] was 2. For the same compound, the “MIC H. influenzae” value [8] was 32.
With Cc1cc(NCc2ccc3c(c2)OCO3)nc2nc(N)nc(N)c12 [III-m] the “MIC M. catarrhalis” value [1] was 16, the “MIC E. coli ATCC 25922” value [2] was 64 and the “MIC E. coli CGSC 5633” value [3] was 0.5. For the same compound, the “MIC E. faecalis” value [4] was 2, the “MIC S. pyogenes” value [5] was 8 and the “MIC S. aureus ATCC 29213” value [6] was 64. The “MIC S. pneumoniae” value [7] was 2 and the “MIC H. influenzae” value [8] was 8.
For COc1ccc(CN(C)c2cc(C)c3c(N)nc(N)nc3n2)cc1OC [IV-b], the “MIC M. catarrhalis” value [1] was 8, the “MIC E. coli ATCC 25922” value [2] was 64 and the “MIC E. coli CGSC 5633” value [3] was 0.125. For the same compound, the “MIC S. aureus ATCC 29213” value [6] was 64, the CC50 [9] was 13.2 µM and the CC50 [10] was over 28.2 µM. For the same compound, the “MIC S. pneumoniae” value [7] was 2 and the “MIC H. influenzae” value [8] was 16.
For COc1cc(CN(C)c2cc(C)c3c(N)nc(N)nc3n2)cc(OC)c1 [IV-c], the “MIC M. catarrhalis” value [1] was 1, the “MIC E. coli ATCC 25922” value [2] was 16 and the “MIC E. coli CGSC 5633” value [3] was under 0.125. The “MIC E. faecalis” value [4] was 0.5, the “MIC S. pyogenes” value [5] was 8 and the “MIC S. aureus ATCC 29213” value [6] was 32. For the same compound, the CC50 [9] was 14.6 µM, the CC50 [10] was 37.4 µM and the “MIC S. pneumoniae” value [7] was 0.5. The “MIC H. influenzae” value [8] was 32.
With Cc1cc(N2CCCc3ccccc32)nc2nc(N)nc(N)c12 [V-a] the “MIC M. catarrhalis” value [1] was 16, the “MIC E. coli ATCC 25922” value [2] was 64 and the “MIC E. coli CGSC 5633” value [3] was under 0.125. The “MIC E. faecalis” value [4] was under 0.125, the “MIC S. pyogenes” value [5] was 32 and the “MIC S. aureus ATCC 29213” value [6] was 32. The CC50 [9] was 11.5 µM, the CC50 [10] was 27.1 µM and the “MIC S. pneumoniae” value [7] was 8. For the same compound, the “MIC H. influenzae” value [8] was 16.
For Nc1nc(N)c2c3c(c(N4Cc5ccccc5C4)nc2n1)CCCC3 [VII-c], the “MIC M. catarrhalis” value [1] was 4, the “MIC E. coli ATCC 25922” value [2] was over 128 and the “MIC E. faecalis” value [4] was 1. The “MIC S. pyogenes” value [5] was 16, the “MIC S. aureus ATCC 29213” value [6] was 16 and the “MIC S. pneumoniae” value [7] was 8. For the same compound, the “MIC H. influenzae” value [8] was over 128.
For Nc1nc(N)c2c3c(c(NCc4cc(F)cc(F)c4)nc2n1)CCCC3 [VII-d], the “MIC M. catarrhalis” value [1] was 16, the “MIC E. coli ATCC 25922” value [2] was 64 and the “MIC E. faecalis” value [4] was 8. For the same compound, the “MIC S. pyogenes” value [5] was 8, the “MIC S. aureus ATCC 29213” value [6] was 32 and the “MIC S. pneumoniae” value [7] was 8. The “MIC H. influenzae” value [8] was 32.
In the case of COc1cc(CN(C)c2nc3nc(N)nc(N)c3c3c2CCCC3)cc(OC)c1 [VII-e], the “MIC M. catarrhalis” value [1] is reported as 4, the “MIC E. coli ATCC 25922” value [2] is reported as 64 and the “MIC E. coli CGSC 5633” value [3] is reported as 1. The “MIC E. faecalis” value [4] was under 0.1250, the “MIC S. pyogenes” value [5] was 2 and the “MIC S. aureus ATCC 29213” value [6] was 32. For the same compound, the “MIC S. pneumoniae” value [7] was 0.5 and the “MIC H. influenzae” value [8] was 16.
In the case of Cc1cc(NCc2cc(F)c(F)c(F)c2)nc2nc([N+](=O)[O-])nc([N+](=O)[O-])c12 [VIII-a], the “MIC M. catarrhalis” value [1] is reported as 2, the “MIC E. coli ATCC 25922” value [2] is reported as 64 and the “MIC E. coli CGSC 5633” value [3] is reported as 4. The “MIC E. faecalis” value [4] was 16, the “MIC S. pyogenes” value [5] was 8 and the “MIC S. aureus ATCC 29213” value [6] was 8. For the same compound, the CC50 [9, 11] was 22.2 µM, the CC50 [10, 12] was over 30.8 µM and the “MIC S. pneumoniae” value [7] was 16. The “MIC H. influenzae” value [8] was 32.
With Cc1cc(NCc2cc(F)cc(C(F)(F)F)c2)nc2nc([N+](=O)[O-])nc([N+](=O)[O-])c12 [VIII-b] the “MIC M. catarrhalis” value [1] was 4, the “MIC E. coli ATCC 25922” value [2] was 64 and the “MIC E. coli CGSC 5633” value [3] was 2. The “MIC E. faecalis” value [4] was 4, the “MIC S. pyogenes” value [5] was 4 and the “MIC S. aureus ATCC 29213” value [6] was 8. For the same compound, the CC50 [9, 11] was 12.1 µM, the CC50 [10, 12] was over 16.4 µM and the “MIC S. pneumoniae” value [7] was 8. The “MIC H. influenzae” value [8] was 64.
